Results reported in patent publication US10941114B2, “Small molecule lipid II inhibitors” (University Of Maryland, Baltimore, priority 2015, dated 2021).
Where a name gives a salt, the structure may show the parent alone.

Each compound was assayed on Staphylococcus aureus (assay: Antibacterial activity assay (MIC, broth dilution)). Conditions: Staphylococcus aureus; Table 21; read-out: Staphylococcus aureus MIC.
Type: cell-based
Set-up: S. aureus Killing / Bacterial Killing S. aureus: unit not given here

| Compound | MIC [µg/mL] |
| --- | --- |
| CN(C)c1ccc(/C=C/c2cc(-c3ccc(C(F)(F)F)cc3)cc(-c3ccc(C(F)(F)F)cc3)[o+]2)cc1.F[B-](F)(F)F | > 64 |

Same assay, conditions: anti-bacterial activity (MIC); strain not stated

| Compound | S. aureus Killing |
| --- | --- |
| Cc1cc(C)[o+]c(C)c1 [2,4,6-trimethylpyrylium boron tetrafluoride salt] | >64 |
| Cc1cc(-c2ccc(C)c(C)c2)cc(-c2ccc(C)c(C)c2)[o+]1 [2,4-bis(3,4-dimethylphenyl)-6-methylpyrylium boron tetrafluoride salt] | >64 |
| CN(C)c1ccc(/C=C/C=C/c2cc(-c3ccc(C(C)(C)C)cc3)cc(-c3ccc(C(C)(C)C)cc3)[o+]2)cc1 [2,4-bis(4-(tert-butyl)phenyl)-6-((1E,3E)-4-(4-(dimethylamino)phenyl)buta-1,3-dien-1-yl)pyrylium boron tetrafluoride salt] | 64 |
| Cc1cc(-c2ccc(C(C)(C)C)cc2)cc(-c2ccc(C(C)(C)C)cc2)[o+]1 [2,4-bis(4-(tert-butyl)phenyl)-6-methylpyrylium boron tetrafiuoride salt] | >64 |
| CN(C)c1ccc(/C=C/C=C/c2cc(-c3ccc(Br)cc3)cc(-c3ccc(Br)cc3)[o+]2)cc1 [2,4-bis(4-bromophenyi)-6-((1E,3E)-4-(4-(dimetliylamino)phenyl)buta-1,3-dien-1-yl)pyrylium boron tetrafluoride salt] | >64 |
| CN(C)c1ccc(/C=C/C=C/c2cc(-c3ccc(Cl)cc3)cc(-c3ccc(Cl)cc3)[o+]2)cc1 [2,4-bis(4-chlorophenyl)-6-((1E,3E)-4-(4-(dimethylamino)phenyl)buta-1,3-dien-1-yl)pyrylium boron tetrafluoride salt] | >64 |
| Cc1cc(-c2ccc(Cl)cc2)cc(-c2ccc(Cl)cc2)[o+]1 [2,4-bis(4-chlorophenyl)-6-methylpyrylium boron tetrafluoride salt] | >64 |
| CCc1ccc(-c2cc(C)[o+]c(-c3ccc(CC)cc3)c2)cc1 [2,4-bis(4-ethylphenyl)-6-methylpyrylium boron tetrafluoride salt] | >64 |
| COc1ccc(-c2cc(C)[o+]c(-c3ccc(OC)cc3)c2)cc1 [2,4-bis(4-methoxyphenyl)-6-methylpyrylium boron tetrafluoride salt] | >64 |
| Cc1ccc(-c2cc(/C=C/C=C/c3ccc(N(C)C)cc3)[o+]c(-c3ccc(C)c(C)c3)c2)cc1C [2-((1E,3E)-4-(4-(dimethylamino)phenyl)buta-1,3-dien-1-yl)-4,6-bis(3,4~ dimethylphenyl) pyrylium boron tetrafluoride salt] | 32 |
| CCc1ccc(-c2cc(/C=C/C=C/c3ccc(N(C)C)cc3)[o+]c(-c3ccc(CC)cc3)c2)cc1 [2-((1E,3E)-4-(4-(dimethylamino)phenyl)buta-1,3-dien-1-yl)-4,6-bis(4-ethylphenyl) pyrylium boron tetrafluoride salt] | 8 |
| Cc1ccc(-c2cc(/C=C/C=C/c3ccc(N(C)C)cc3)[o+]c(-c3ccc(C)cc3)c2)cc1 [2-((1E,3E)-4-(4-(dimethylamino)phenyl)buta-1,3-dien-1-yl)-4,6-di-p-tolylpyrylium boron tetrafluoride salt] | 2 |
| CN(C)c1ccc(/C=C/C=C/c2cc(-c3ccccc3)cc(-c3ccccc3)[o+]2)cc1 [2-((1E,3E)-4-(4-(dimethylamino)phenyl)buta-1,3-dien-1-yl)-4,6-diphenyl pyrylium boron tetrafluoride salt] | 4 |
| Cc1cc(-c2ccccc2)cc(-c2ccccc2)[o+]1 [2-methy1-4,6-diphenylpyrylium boron tetrafluoride salt] | >64 |
| Cc1ccc(-c2cc(C)[o+]c(-c3ccc(C)cc3)c2)cc1 [2-methyl-4,6-di-p-tolylpyrylium boron tetrafluoride salt] | >64 |
| Cc1cc(/C=C/C=C/c2ccc(N(C)C)cc2)cc(C)[o+]1 [4-((1E,3E)-4-(4-(dimethylamino)phenyl)buta-1,3-dien-1-yl)-2,6-dimethylpyrylium boron tetrafluoride salt] | 32 |
| Cc1ccc(-c2cc(/C=C/c3cn(C)c4ccccc34)[o+]c(-c3ccc(C)c(C)c3)c2)cc1C [(E)-2,4-bis(3,4-dimethylphenyl)-6-(2-(1-methyl-1H-indol-3-yl)vinyl)pyrylium boron tetrafluoride salt] | 1 |
| CC(C)(C)c1ccc(-c2cc(/C=C/c3cc4c5c(c3)CCCN5CCC4)[o+]c(-c3ccc(C(C)(C)C)cc3)c2)cc1 [(E)-2,4-bis(4-(tert-butyl)phenyl)-6-(2-(1,2,3,5,6,7-hexahydropyrido [3,2,1-ij]quinolin-9-yl)vinyl)pyrylium boron tetrafluoride salt] | 32 |
| Cn1cc(/C=C/c2cc(-c3ccc(C(C)(C)C)cc3)cc(-c3ccc(C(C)(C)C)cc3)[o+]2)c2ccccc21 [(E)-2,4-bis(4-(tert-butyl)phenyl)-6-(2-(1-methyl-1H-indol-3-yl)vinyl)pyrylium boron tetrafluoride salt] | 16 |

| Compound | S. aureus Killing |
| --- | --- |
| CN(C)c1ccc(/C=C/c2cc(-c3ccc(C(C)(C)C)cc3)cc(-c3ccc(C(C)(C)C)cc3)[o+]2)cc1 [(E)-2,4-bis(4-(tert-butyl)phenyl)-6-(4-(dimethylamino)styryl)pyrylium boron tetrafluoride salt] | 8 |
| Cn1cc(/C=C/c2cc(-c3ccc(Br)cc3)cc(-c3ccc(Br)cc3)[o+]2)c2ccccc21 [(E)-2,4-bis(4-bromophenyl)-6-(2-(1-methyl-1H-indol-3-yl)vinyl)pyrylium boron tetrafluoride salt] | 64 |
| Clc1ccc(-c2cc(/C=C/c3cc4c5c(c3)CCCN5CCC4)[o+]c(-c3ccc(Cl)cc3)c2)cc1 [(E)-2,4-bis(4-chlorophenyl)-6-(2-(1,2,3,5,6,7-hexahydropyrido [3,2,1-ij]quinolin-9-yl)vinyl)pyrylium boron tetrafluoride salt] | 1 |
| Cn1cc(/C=C/c2cc(-c3ccc(Cl)cc3)cc(-c3ccc(Cl)cc3)[o+]2)c2ccccc21 [(E)-2,4-bis(4-chlorophenyl)-6-(2-(1-methyl-1H-indol-3-yl)vinyl)pyrylium boron tetrafluoride salt] | 64 |
| Brc1ccc(-c2cc(/C=C/c3cc4c5c(c3)CCCN5CCC4)[o+]c(-c3ccc(Br)cc3)c2)cc1 [(E)-2,4-bis(4~ bromophenyl)-6-(2-(1,2,3,5,6,7-hexahydropyrido [3,2,1-ij]quinolin-9-yl)vinyl)pyrylium boron tetrafluoride salt] | 4 |
| Cc1ccc(-c2cc(/C=C/c3cc4c5c(c3)CCCN5CCC4)[o+]c(-c3ccc(C)cc3)c2)cc1 [(E)-2-(2-(1,2,3,5,6,7-hexahydropyrido [3,2,1-ij]quinolin-9-yl)vinyl)-4,6-di-p-tolylpyrylium boron tetrafluoride salt] | 1 |
| C(=C\c1cc(-c2ccccc2)cc(-c2ccccc2)[o+]1)/c1cc2c3c(c1)CCCN3CCC2 [(E)-2-(2-(1,2,3,5,6,7-hexahydropyrido [3,2,1-ij]quinolin-9-yl)vinyl)-4,6-diphenylpyrylium boron tetrafluoride salt] | 1 |
| Cc1ccc(-c2cc(/C=C/c3cn(C)c4ccccc34)[o+]c(-c3ccc(C)cc3)c2)cc1 [(E)-2-(2-(1-methyl-1H-indol-3-yl)vinyl)-4,6-di-p-tolylpyrylium boron tetrafluoride salt] | 0.5 |
| Cn1cc(/C=C/c2cc(-c3ccccc3)cc(-c3ccccc3)[o+]2)c2ccccc21 [(E)-2-(2-(1-methyl-1H-indol-3-yl)vinyl)-4,6-diphenylpyrylium boron tetrafluoride salt] | 0.5 |
| Cc1ccc(-c2cc(/C=C/c3c[nH]c4ccccc34)[o+]c(-c3ccc(C)c(C)c3)c2)cc1C [(E)-2-(2-(1H-indol-3-yl)vinyl)-4,6-bis(3,4-dimethylphenyl) pyrylium boron tetrafluoride salt] | 4 |
| Brc1ccc(-c2cc(/C=C/c3c[nH]c4ccccc34)[o+]c(-c3ccc(Br)cc3)c2)cc1 [(E)-2-(2-(1H-indol-3-yl)vinyl)-4,6-bis(4-bromophenyl) pyrylium boron tetrafluoride salt] | >64 |
| Clc1ccc(-c2cc(/C=C/c3c[nH]c4ccccc34)[o+]c(-c3ccc(Cl)cc3)c2)cc1 [(E)-2-(2-(1H-indol-3-yl)vinyl)-4,6-bis(4-chlorophenyl) pyrylium boron tetrafluoride salt] | 16 |
| CCc1ccc(-c2cc(/C=C/c3c[nH]c4ccccc34)[o+]c(-c3ccc(CC)cc3)c2)cc1 [(E)-2-(2-(1H-indol-3-yl)vinyl)-4,6-bis(4-ethylphenyl) pyrylium boron tetrafluoride salt] | 4 |
| Cc1ccc(-c2cc(/C=C/c3c[nH]c4ccccc34)[o+]c(-c3ccc(C)cc3)c2)cc1 [(E)-2-(2-(1H-indol-3-yl)vinyl)-4,6-di-p-tolylpyiylium boron tetrafluoride salt] | 4 |
| C(=C\c1c[nH]c2ccccc12)/c1cc(-c2ccccc2)cc(-c2ccccc2)[o+]1 [(E)-2-(2-(1H-indol-3-yl)vinyl)-4,6-diphenylpyrylium boron tetrafluoiide salt] | 1 |
| CC(C)(C)c1ccc(-c2cc(/C=C/c3c[nH]c4ccccc34)[o+]c(-c3ccc(C(C)(C)C)cc3)c2)cc1 [(E)-2-(2-(1H-mdol-3-yl)vinyl)-4,6-bis(4-(tert-butyl)phenyl) pyrylium boron tetrafluoride salt] | 32 |
| Cc1ccc(-c2cc(/C=C/c3ccc(N(C)C)cc3)[o+]c(-c3ccc(C)c(C)c3)c2)cc1C [(E)-2-(4-(dimethylamino)styryl)-4,6-bis(3,4-dimethylphenyl) pyrylium boron tetrafluoride salt] | 2 |
| CCc1ccc(-c2cc(/C=C/c3ccc(N(C)C)cc3)[o+]c(-c3ccc(CC)cc3)c2)cc1 [(E)-2-(4-(dimethylamino)styryl)-4,6-bis(4-ethylphenyl) pyryliurn boron tetrafluoride salt] | 1 |
| Cc1ccc(-c2cc(/C=C/c3ccc(N(C)C)cc3)[o+]c(-c3ccc(C)cc3)c2)cc1 [(E)-2-(4-(dimethylamino)styryl)-4,6-di-p-tolylpyrylium boron tetrafluoride salt] | 0.5 |
